Measured values taken from US20160145300A1, “ARTIFICIAL DECAPEPTIDE, MEDICATION AND METHOD OF INDUCING BREEDING OF CRUSTACEANS” (National Pingtung University of Science and technology, priority 2014, published 2016).
Marks after values point to notes of the source that are not given here.

Tests used:
Assay type in all cases: in vivo
[1] = test system: female shrimps (Litopenaeus vannamei); assay: ovarian development of female shrimps after administration; settings: recorded weekly 2-4 months after the administration, percentage relative to overall Litopenaeus vannamei in the test
Protocol: (§1) After these, an effective amount of the artificially decapeptide is administrated to a crustacean, wherein, the effective amount of the artificially decapeptide may be 10 nanograms (ng) to 1000 ng, preferably 50 ng, per gram of body weight for each administrating. In one embodiment of the present embodiment a sustainable releasing dosage of the artificial decapeptide may be optionally prepared and administrated to the crustacean, so as to simplify the administration process. A method of preparing the sustainable releasing dosage of the artificially decapeptide, for example, may include formulating a great amount of the artificially decapeptide in an excipient, such as an excipient including oil. For example, 100 ng to 2000 ng of the artificially decapeptide may be formulated in 50 microliter (μl) to 200 μl of the excipient. With such arrangement, while the sustainable releasing dosage of the artificially decapeptide is administrated to the crustacean, the artificially decapeptide therein may be allowed to progressively release in the crustacean, thereby extending the inducing effect to the crustacean. Thus, in another embodiment of the present invention, the sustainable releasing dosage of the artificially decapeptide may be administrated to the crustacean every three to six months, preferably every four months, but not limited thereto. In other embodiment of the present invention, the artificially decapeptide may also be firstly formulated in saline, to forma solvent, and then, mixed with the excipient, wherein a volume ratio between the solvent and the excipient may be 1:1 to 1:3. Furthermore, in another embodiment, the excipient may include mineral oil, such as […] or incomplete adjuvant; vegetable oil, such as peanut oil, olive oil or coconut oil; fat adhesive, such as methylcellulose; or a composite of the aforementioned oil.
In the present test, the artificial decapeptide of the present invention is exemplified on numbers of Litopenaeus vannamei (Decapoda: Macrura). However, people in the art should easily realize the present invention is not limited thereto.
In the present test, the artificial decapetide is firstly formulated in the aforementioned sustainable releasing dosage and then administrated to each Litopenaeus vannamei. After that, the spermatophore development of each male shrimp is determined and recorded every 4 days after the administration, through observing the external characteristics spermatophore. Also, the spermatophore weight, as well as the sperm count, is precisely measured 44 days after the administration. On the other hand, the ovarian development of each female shrimp is also determined and recorded weekly 2-4 months after the administration through observing the external characteristics and the maturity of ovarian. Furthermore, the spawning times of each female shrimp may be also recorded. Please refer to TABLEs 1-3 and FIGS. 1-2, which illustrate gonadal promoting effects of the artificial decapeptide either on male or female shrimps (Litopenaeus vannamei). Wherein, TABLE 1 and FIGS. 1-2 show the maturity of spermatophore in male shrimps, including the development stage, spermatophore weight and sperm count per spermatophore, after the artificial decapeptide is administrated, in comparison with untreated male shrimps (control; marked as B in FIGS. 1-2), respectively.

[2] = test system: female shrimps (Litopenaeus vannamei); assay: spawning times of female shrimps after administration
Protocol: as §1
In the present test, the artificial decapeptide of the present invention is exemplified on numbers of Litopenaeus vannamei (Decapoda: Macrura). […]
(§2) In the present test, the artificial decapetide is firstly formulated in the aforementioned sustainable releasing dosage and then administrated to each Litopenaeus vannamei. After that, the spermatophore development of each male shrimp is determined and recorded every 4 days after the administration, through observing the external characteristics spermatophore. Also, the spermatophore weight, as well as the sperm count, is precisely measured 44 days after the administration. On the other hand, the ovarian development of each female shrimp is also determined and recorded weekly 2-4 months after the administration through observing the external characteristics and the maturity of ovarian. Furthermore, the spawning times of each female shrimp may be also recorded. […]

[3] = test system: male shrimps (Litopenaeus vannamei); assay: maturity of spermatophore in male shrimps after administration of sustainable releasing dosage
Protocol: After these, an effective amount of the artificially decapeptide is administrated to a crustacean, wherein, the effective amount of the artificially decapeptide may be 10 nanograms (ng) to 1000 ng, preferably 50 ng, per gram of body weight for each administrating. In one embodiment of the present embodiment a sustainable releasing dosage of the artificial decapeptide may be optionally prepared and administrated to the crustacean, so as to simplify the administration process. A method of preparing the sustainable releasing dosage of the artificially decapeptide, for example, may include formulating a great amount of the artificially decapeptide in an excipient, such as an excipient including oil. For example, 100 ng to 2000 ng of the artificially decapeptide may be formulated in 50 microliter (μl) to 200 μl of the excipient. With such arrangement, while the sustainable releasing dosage of the artificially decapeptide is administrated to the crustacean, the artificially decapeptide therein may be allowed to progressively release in the crustacean, thereby extending the inducing effect to the crustacean. […]
as §2

[4] = 44 days after the administration

## artificial decapeptide: Synthetic 10-amino-acid peptide based on chicken GnRH-II (SEQ ID NO: 2); N-terminal Glu and C-terminal Gly unblocked (H-EHWSHGWYPG-OH; listed as Gallus gallus)
[1]; stage 0
  percentage of female shrimps at ovarian development stage 0: 0%^b
[1]; stage 0.5
  percentage of female shrimps at ovarian development stage 0.5: 20%^b
[1]; stage 1
  percentage of female shrimps at ovarian development stage 1: 0%^b
[1]; stage 1.5
  percentage of female shrimps at ovarian development stage 1.5: 0%^b
[1]; stage 2
  percentage of female shrimps at ovarian development stage 2: 0%^b
[1]; stage 2.5
  percentage of female shrimps at ovarian development stage 2.5: 0%^b
[1]; stage 3
  percentage of female shrimps at ovarian development stage 3: 0%^b
[2]; 0 spawnings, 8-16 weeks after administrating, percentage relative to overall Litopenaeus vannamei in the test
  percentage of female shrimps with spawning times 0: 20%^b
[2]; 3 spawnings, 8-16 weeks after administrating, percentage relative to overall Litopenaeus vannamei in the test
  percentage of female shrimps with spawning times 3: 0%^b
[2]; compared with current techniques (around one month)
  effective period: between two and four
[2]; compared with current techniques (fewer times of spawning)
  number of spawnings induced: four
[3]; [4]
  sperm count per spermatophore: 68.5 ± 18.14 10^5/per spermatophore
  spermatophore weight: 0.0217 ± 0.007 g
[3]; in 44 days after the administration
  spermatophore development stage reached: 2.5
